Like-named read-outs stand apart in the source and are kept apart here.
System: 280 human cancer cell lines
Assay: OncoPanel cell proliferation assay (10-day)
Type: cell-based
Settings: Homo sapiens; for IC50: read-out: Cell Count IC50; for EC50: read-out: Cell Count EC50; for GI50: read-out: Cell Count GI50
[1] = SJRH30, SJRH30, Soft Tissue - Sarcoma
[2] = SJSA-1, SJSA1, Soft Tissue - Osteosarcoma
[3] = SK-LMS-1, SK-LMS-1, Soft Tissue - Sarcoma
[4] = SK-MEL3, SK-MEL-3, Skin (Melanoma)
[5] = SK-MEL-1, SK-MEL-1, Skin (Melanoma)
[6] = SK-MEL-28, SK-MEL-28, Skin (Melanoma)
[7] = SK-OV-3, SKOV3, Female GU - Ovary
[8] = SK-UT-1, SK-UT-1, Soft Tissue - Sarcoma
[9] = SW579, SW579, Endocrine - Thyroid
[10] = SW684, SW684, Soft Tissue - Sarcoma

## CC(C)=CCC[C@@H]1C(O)Oc2c(C)cc(O)c3c2[C@H]1CC[C@H]3C (some centres unmarked) [Compound 2, 5,18-epoxyserrulat-14-en-8,18-diol]
SCaBER, Bladder
  IC50: 11.5 µM
SH-4, Skin (Melanoma)
  EC50: 9.6 µM
  GI50: 11.8 µM
  IC50: 11.9 µM
SHP77, SHP-77, Lung - SCLC
  EC50: 8.01 µM
  GI50: 7.9 µM
  IC50: 8.01 µM
[1]
  EC50: 5.09 µM
  GI50: 5.07 µM
  IC50: 5.1 µM
[2]
  EC50: 7.11 µM
  GI50: 7.02 µM
  IC50: 7.11 µM
SK-BR-3, SK-BR-3, Breast
  EC50: 12.2 µM
  GI50: 11.9 µM
  IC50: 12.2 µM
[3]
  EC50: 6.79 µM
  GI50: 11.2 µM
  IC50: 11.3 µM
[4]
  EC50: 22 µM
  GI50: 20.8 µM
[5]
  EC50: 15.7 µM
  GI50: 14.7 µM
  IC50: 15.7 µM
[6]
  EC50: 9.46 µM
  GI50: 9.85 µM
  IC50: 9.89 µM
SK-MES-1, SKMES1, Lung - NSCLC
  EC50: 7.8 µM
  GI50: 7.67 µM
  IC50: 7.8 µM
SK-N-AS, CNS - Neuroblastoma
  EC50: 6.23 µM
  GI50: 7.7 µM
  IC50: 7.92 µM
SK-N-DZ, CNS - Neuroblastoma
  EC50: > 30 µM
  GI50: > 30 µM
  IC50: > 30 µM
SK-N-FI, CNS - Neuroblastoma
  EC50: > 30 µM
  GI50: > 30 µM
  IC50: > 30 µM
[7]
  EC50: 15.4 µM
  GI50: 15.2 µM
  IC50: 15.4 µM
SK-PN-DW, Stomach
  EC50: 10.8 µM
  GI50: 10.9 µM
  IC50: 10.9 µM
[8]
  EC50: 11.7 µM
  GI50: 11.6 µM
  IC50: 11.7 µM
SKO-007, SKO-007, Myeloma
  EC50: 1.59 µM
  GI50: 1.42 µM
  IC50: 1.59 µM
SNB-19, SNB-19, CNS - Glioma
  EC50: 17.3 µM
  GI50: 16.8 µM
  IC50: 17.3 µM
SNU1, SNU-1, Stomach
  EC50: 8.51 µM
  GI50: 9.41 µM
  IC50: 9.42 µM
SNU-5, SNU-5, Stomach
  EC50: > 30 µM
  GI50: > 30 µM
  IC50: > 30 µM
SNU-16, SNU-16, Stomach
  EC50: 9.96 µM
  GI50: 9.91 µM
  IC50: 9.96 µM
SNU-423, SNU-423, Liver
  EC50: 5.29 µM
  GI50: 5.26 µM
  IC50: 5.31 µM
SR, Lymphoma
  EC50: 10.7 µM
  GI50: 10.7 µM
  IC50: 10.7 µM
ST486, ST486, Lymphoma
  EC50: 3.87 µM
  GI50: 3.86 µM
  IC50: 3.87 µM
SU-DHL10, SU-DHL-10, Lymphoma
  EC50: 9.92 µM
  GI50: 9.9 µM
  IC50: 9.92 µM
SU-DHL-4, SU-DHL-4, Lymphoma
  EC50: 4.2 µM
  GI50: 4.2 µM
  IC50: 4.2 µM
SU-DHL-5, SU-DHL-5, Lymphoma
  EC50: 4.28 µM
  GI50: 4.27 µM
  IC50: 4.28 µM
SU-DHL-8, SU-DHL-8, Lymphoma
  EC50: 7.4 µM
  GI50: 7.4 µM
  IC50: 7.4 µM
SU.86.86, SU.86.86, Pancreas
  EC50: 13.1 µM
  GI50: > 30 µM
  IC50: > 30 µM
SUP-T1, SUP-T1, Lymphoma
  EC50: 12.1 µM
  GI50: 12 µM
  IC50: 12.1 µM
SW48, SW48, Colon
  EC50: 8.73 µM
  GI50: 8.65 µM
  IC50: 8.73 µM
[9]
  EC50: 12.3 µM
  GI50: 12.2 µM
  IC50: 12.3 µM
[10]
  EC50: > 30 µM
  GI50: > 30 µM
  IC50: > 30 µM
SW837, SW837, Colon
  EC50: > 30 µM
  GI50: > 30 µM

Source: patent US11331299B2, “Medicinal use of serrulatane diterpenes” (The University of Sydney, priority 2016, dated 2022)
